Laboratory results taken from US20240409585A1, “MACROCYCLIC IMMUNOMODULATORS” (priority 2021, published 2024).
Numbered stars: 1 amine (or outer) side, 2 acyl side, 3 side chain; on linkers, the order of the positions; unused ones are H or OH. Bridge positions count the residues as written; N and C are the ends. Square brackets hold non-standard residues; d marks the D form. Peptide text beside a SMILES is read from it. * marks the point of attachment. Bip(4'-COOH) = N[C@@H](Cc1ccc(-c2ccc(C(=O)O)cc2)cc1)C(=O)O; Bip(4'-NHAc) = CC(=O)Nc1ccc(-c2ccc(C[C@H](N)C(=O)O)cc2)cc1; Phe(3-CF3) = N[C@@H](Cc1cccc(C(F)(F)F)c1)C(=O)O; Ala(morpholin-4-yl) = N[C@@H](CN1CCOCC1)C(=O)O; Phe(4-COOH) = N[C@@H](Cc1ccc(C(=O)O)cc1)C(=O)O; Bip = N[C@@H](Cc1ccc(-c2ccccc2)cc1)C(=O)O; Phe(3-Me) = Cc1cccc(C[C@H](N)C(=O)O)c1; Propanoyl(3,3,3-F3) = O=C(CC(F)(F)F)*; Glutaryl = O=C(CCCC(=O)[*:2])[*:1]; Val(3-OH) = CC(C)(O)[C@H](N)C(=O)O; hPhe = N[C@@H](CCc1ccccc1)C(=O)O; Cha = N[C@@H](CC1CCCCC1)C(=O)O; Carboxymethyl = O=C(O)C*; NMeA = CN[C@@H](C)C(=O)O; Orn = NCCC[C@H](N)C(=O)O; Dab = NCC[C@H](N)C(=O)O; Dap = NC[C@H](N)C(=O)O

These molecules were tested against T1, Alexa fluor-647 labeled human PD-L1-Ig binding to Jurkat cell line over-expressing human PD-1 (Homo sapiens, UniProt Q15116) (assay: Jurkat-PD-1 Cell Binding High-Content Screening Assay (CBA): Method 3 (Alexa fluor-647 labeled PD-L1-Ig)). Details: Jurkat-PD-1 cells, Alexa fluor-647 labeled PD-L1-Ig 177 nM; head μM; read-out: CBA Method 3 μM.
T1 construct: expressed in transfected cells; host or cells: Jurkat
T1 sequence (Q15116 25-288): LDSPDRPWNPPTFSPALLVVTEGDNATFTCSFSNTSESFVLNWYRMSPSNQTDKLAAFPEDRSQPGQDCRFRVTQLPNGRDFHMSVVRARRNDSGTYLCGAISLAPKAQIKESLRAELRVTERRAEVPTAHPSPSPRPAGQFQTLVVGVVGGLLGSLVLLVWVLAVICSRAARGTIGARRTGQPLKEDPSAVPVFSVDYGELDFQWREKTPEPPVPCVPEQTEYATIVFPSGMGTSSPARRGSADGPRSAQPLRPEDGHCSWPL
Procedure, shortened: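 Readout by high-content imaging of PFA-fixed, Hoechst-stained cells after 1 h with 177 nM (final) Alexa fluor-647 PD-L1-Ig. Compound was added first to hPD-1 Jurkat cells in RPMI plus 10% FCS for 2 h at 37 °C.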

Compound	IC50 [µM]
CC(=O)Nc1ccc(-c2ccc(C[C@@H]3NC(=O)[C@H](Cc4cccc(C)c4)NC(=O)[C@H](CC(=O)O)NC(=O)[C@H](Cc4ccc(C(=O)O)cc4)NC(=O)[C@H](CC4CCCCC4)NC(=O)CSC[C@@H](C(=O)N[C@@H](CCN)C(N)=O)NC(=O)[C@H](CCC(=O)O)NC(=O)[C@H](C(C)C)NC(=O)[C@H](CC4CCCCC4)NC(=O)[C@H](CCN)NC(=O)[C@@H](CC(C)C)NC(=O)[C@H](C)N(C)C(=O)[C@H](Cc4ccc(C(=O)O)cc4)NC(=O)[C@H](Cc4ccc(-c5ccccc5)cc4)NC3=O)cc2)cc1 [Example 5199] ({CH2CO}-[Cha][Phe(4-COOH)]D[Phe(3-Me)][Bip(4'-NHAc)][Bip][Phe(4-COOH)][NMeA][dL][Dab][Cha]VEC[Dab]-NH2; thioether N-14)	0.01
CC(=O)Nc1ccc(-c2ccc(C[C@@H]3NC(=O)[C@H](Cc4cccc(C)c4)NC(=O)[C@H](CC(=O)O)NC(=O)[C@H](Cc4ccc(-c5ccc(C(=O)O)cc5)cc4)NC(=O)[C@H](CN4CCOCC4)NC(=O)CSC[C@@H](C(=O)N[C@@H](CCN)C(N)=O)NC(=O)[C@H](CO)NC(=O)[C@H](C(C)(C)O)NC(=O)[C@H](CC4CCCCC4)NC(=O)[C@H](CC(N)=O)NC(=O)[C@@H](CC(C)C)NC(=O)[C@H](C)N(C)C(=O)[C@H](Cc4ccc(OCC(=O)O)cc4)NC(=O)[C@H](Cc4ccc(-c5ccccc5)cc4)NC3=O)cc2)cc1 [Example 5129] ({CH2CO}-[Ala(morpholin-4-yl)][Bip(4'-COOH)]D[Phe(3-Me)][Bip(4'-NHAc)][Bip]Y(Carboxymethyl)[NMeA][dL]N[Cha][Val(3-OH)]SC[Dab]-NH2; thioether N-14)	0.03
Cc1cccc(C[C@@H]2NC(=O)[C@H](CC(=O)O)NC(=O)[C@H](Cc3ccc(OCC(=O)O)cc3)NC(=O)[C@H](CC3CCCCC3)NC(=O)CSC[C@@H](C(=O)N[C@@H](CCN)C(N)=O)NC(=O)[C@H](CCCN)NC(=O)[C@H](C(C)C)NC(=O)[C@H](CN3CCOCC3)NC(=O)[C@H](CCN)NC(=O)[C@@H](CC(C)C)NC(=O)[C@H](C)N(C)C(=O)[C@H](CCC(N)=O)NC(=O)[C@H](Cc3ccc(-c4ccccc4)cc3)NC(=O)[C@H](Cc3ccc(C(=O)O)cc3)NC2=O)c1 [Example 5191] ({CH2CO}-[Cha]Y(Carboxymethyl)D[Phe(3-Me)][Phe(4-COOH)][Bip]Q[NMeA][dL][Dab][Ala(morpholin-4-yl)]V[Orn]C[Dab]-NH2; thioether N-14)	0.12
CC(C)C[C@H]1NC(=O)[C@H](C)N(C)C(=O)[C@H](Cc2ccc(C(=O)O)cc2)NC(=O)[C@H](Cc2ccc(-c3ccccc3)cc2)NC(=O)[C@H](CCc2ccccc2)NC(=O)[C@H](Cc2cccc(C(F)(F)F)c2)NC(=O)[C@H](CC(=O)O)NC(=O)[C@H](Cc2ccc(C(=O)O)cc2)NC(=O)[C@H](CN2CCOCC2)NC(=O)CSC[C@@H](C(=O)N[C@@H](CCN)C(N)=O)NC(=O)[C@H](CNC(=O)CCCC(=O)O)NC(=O)[C@H](C(C)C)NC(=O)[C@H](CC2CCCCC2)NC(=O)[C@H](CCN)NC1=O [Example 5209] ({CH2CO}-[Ala(morpholin-4-yl)][Phe(4-COOH)]D[Phe(3-CF3)][hPhe][Bip][Phe(4-COOH)][NMeA][dL][Dab][Cha]V[Dap](Glutaryl)C[Dab]-NH2; thioether N-14)	0.02

More lines, now with the values ahead:

IC50 [µM]	Compound
0.03	Cc1cccc(C[C@@H]2NC(=O)[C@H](CC(=O)O)NC(=O)[C@H](Cc3ccc(OCC(=O)O)cc3)NC(=O)[C@H](CC3CCCCC3)NC(=O)CSC[C@@H](C(=O)N[C@@H](CCN)C(N)=O)NC(=O)[C@H](Cc3cnc[nH]3)NC(=O)[C@H](C(C)(C)O)NC(=O)[C@H](CC3CCCCC3)NC(=O)[C@H](CCN)NC(=O)[C@@H](CC(C)C)NC(=O)[C@H](C)N(C)C(=O)[C@H](CCC(N)=O)NC(=O)[C@H](Cc3ccc(-c4ccccc4)cc3)NC(=O)[C@H](CCc3ccccc3)NC2=O)c1 [Example 5277] ({CH2CO}-[Cha]Y(Carboxymethyl)D[Phe(3-Me)][hPhe][Bip]Q[NMeA][dL][Dab][Cha][Val(3-OH)]HC[Dab]-NH2; thioether N-14)
0.07	CC(C)C[C@H]1NC(=O)[C@H](C)N(C)C(=O)[C@H](CCC(N)=O)NC(=O)[C@H](Cc2ccc(-c3ccccc3)cc2)NC(=O)[C@H](CCc2ccccc2)NC(=O)[C@H](Cc2cccc(C(F)(F)F)c2)NC(=O)[C@H](CC(=O)O)NC(=O)[C@H](Cc2ccc(OCC(=O)O)cc2)NC(=O)[C@H](CC2CCCCC2)NC(=O)CSC[C@@H](C(=O)N[C@@H](CCN)C(N)=O)NC(=O)[C@H](CO)NC(=O)[C@H](C(C)(C)O)NC(=O)[C@H](CC2CCCCC2)NC(=O)[C@H](CCN)NC1=O [Example 5226] ({CH2CO}-[Cha]Y(Carboxymethyl)D[Phe(3-CF3)][hPhe][Bip]Q[NMeA][dL][Dab][Cha][Val(3-OH)]SC[Dab]-NH2; thioether N-14)
0.1	CC(C)C[C@H]1NC(=O)[C@H](C)N(C)C(=O)[C@H](Cc2ccc(C(=O)O)cc2)NC(=O)[C@H](Cc2ccc(-c3ccccc3)cc2)NC(=O)[C@H](CCc2ccccc2)NC(=O)[C@H](Cc2cccc(C(F)(F)F)c2)NC(=O)[C@H](CC(=O)O)NC(=O)[C@H](Cc2ccc(C(=O)O)cc2)NC(=O)[C@H](CN2CCOCC2)NC(=O)CSC[C@@H](C(=O)N[C@@H](CCN)C(N)=O)NC(=O)[C@H](CNC(=O)CC(F)(F)F)NC(=O)[C@H](C(C)C)NC(=O)[C@H](CC2CCCCC2)NC(=O)[C@H](CCN)NC1=O [Example 5232] ({CH2CO}-[Ala(morpholin-4-yl)][Phe(4-COOH)]D[Phe(3-CF3)][hPhe][Bip][Phe(4-COOH)][NMeA][dL][Dab][Cha]V[Dap](Propanoyl(3,3,3-F3))C[Dab]-NH2; thioether N-14)

Same assay, conditions: Jurkat-PD-1 cells, Alexa fluor-647 labeled PD-L1-Ig 177 nM; nM; read-out: CBA Method 3

IC50 [µM]	Compound
0.002	Cc1cccc(C[C@@H]2NC(=O)[C@H](CC(=O)O)NC(=O)[C@H](Cc3ccc(OCC(=O)O)cc3)NC(=O)[C@H](C)NC(=O)CSC[C@@H](C(=O)N[C@@H](CCN)C(N)=O)NC(=O)[C@H](CCCN)NC(=O)[C@H](C(C)C)NC(=O)[C@H](CC3CCCCC3)NC(=O)[C@H](CCN)NC(=O)[C@@H](CC(C)C)NC(=O)[C@H](C)N(C)C(=O)[C@H](CCC(N)=O)NC(=O)[C@H](Cc3ccc(-c4ccccc4)cc3)NC(=O)[C@H](Cc3ccc(C(=O)O)cc3)NC2=O)c1 [Example 5266] ({CH2CO}-AY(Carboxymethyl)D[Phe(3-Me)][Phe(4-COOH)][Bip]Q[NMeA][dL][Dab][Cha]V[Orn]C[Dab]-NH2; thioether N-14)
0.0044	CC(C)C[C@H]1NC(=O)[C@H](C)N(C)C(=O)[C@H](CCC(N)=O)NC(=O)[C@H](Cc2ccc(-c3ccccc3)cc2)NC(=O)[C@H](CCc2ccccc2)NC(=O)[C@H](Cc2cccc(C(F)(F)F)c2)NC(=O)[C@H](CC(=O)O)NC(=O)[C@H](Cc2ccc(O)cc2)NC(=O)[C@H](CN2CCOCC2)NC(=O)CSC[C@@H](C(=O)N[C@@H](CCN)C(N)=O)NC(=O)[C@H](CCC(N)=O)NC(=O)[C@H](C(C)C)NC(=O)[C@H](CC2CCCCC2)NC(=O)[C@H](CCN)NC1=O [Example 5240] ({CH2CO}-[Ala(morpholin-4-yl)]YD[Phe(3-CF3)][hPhe][Bip]Q[NMeA][dL][Dab][Cha]VQC[Dab]-NH2; thioether N-14)
0.0004	CC(C)C[C@H]1NC(=O)[C@H](C)N(C)C(=O)[C@H](CCC(N)=O)NC(=O)[C@H](Cc2ccc(-c3ccccc3)cc2)NC(=O)[C@H](CCc2ccccc2)NC(=O)[C@H](Cc2cccc(C(F)(F)F)c2)NC(=O)[C@H](CC(=O)O)NC(=O)[C@H](Cc2ccc(O)cc2)NC(=O)[C@H](CC2CCCCC2)NC(=O)CSC[C@@H](C(=O)N[C@@H](CCN)C(N)=O)NC(=O)[C@H](CCC(N)=O)NC(=O)[C@H](C(C)C)NC(=O)[C@H](CC2CCCCC2)NC(=O)[C@H](CCN)NC1=O [Example 5241] ({CH2CO}-[Cha]YD[Phe(3-CF3)][hPhe][Bip]Q[NMeA][dL][Dab][Cha]VQC[Dab]-NH2; thioether N-14)
